Data from ChEMBL document CHEMBL1201862, “PubChem BioAssay data set” (2004).
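Exposure lasted 48 hours, with cells grown in 96-well plates and compounds tested at five concentrations. GI50 marks 50% less growth.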 Calls of active or inactive are those of the source. Rule as the data show it: active = GI50 up to about 1.1 µM and inactive = higher.

Key:
Assay in all cases: inhibition of tumour cell growth, NCI panel, 48 h
HCT-116 = test system: HCT-116
SF-268 = test system: SF-268
A498 = test system: A498
U-251 = test system: U-251
OVCAR-5 = test system: OVCAR-5
M14 = test system: M14
SK-MEL-28 = test system: SK-MEL-28
HCT-15 = test system: HCT-15
LXFL 529 = test system: LXFL 529
Malme-3M = test system: Malme-3M
HCC 2998 = test system: HCC 2998
TK-10 = test system: TK-10
LOX IMVI = test system: LOX IMVI
DLD-1 = test system: DLD-1
RPMI-8226 = test system: RPMI-8226
KM12 = test system: KM12
DMS-273 = test system: DMS-273
A549 = test system: A549
EKVX = test system: EKVX
HOP-92 = test system: HOP-92
MOLT-4 = test system: MOLT-4
NCI-H460 = test system: NCI-H460
SK-MEL-2 = test system: SK-MEL-2
UACC-257 = test system: UACC-257
786-0 = test system: 786-0
SK-OV-3 = test system: SK-OV-3
UACC-62 = test system: UACC-62
XF498 = test system: XF498
HT-29 = test system: HT-29
SK-MEL-5 = test system: SK-MEL-5
ACHN = test system: ACHN
M19-MEL = test system: M19-MEL
SF-539 = test system: SF-539
COLO 205 = test system: COLO 205
HOP-62 = test system: HOP-62
SNB-75 = test system: SNB-75
NCI-H522 = test system: NCI-H522
DMS-114 = test system: DMS-114
OVCAR-8 = test system: OVCAR-8
OVCAR-3 = test system: OVCAR-3
SW-620 = test system: SW-620
CCRF-CEM = test system: CCRF-CEM
KM-20L2 = test system: KM-20L2
SN12C = test system: SN12C
SNB-19 = test system: SNB-19
RXF 631 = test system: RXF 631
OVCAR-4 = test system: OVCAR-4
NCI-H23 = test system: NCI-H23
SF-295 = test system: SF-295
SNB-78 = test system: SNB-78
K562 = test system: K562
IGROV-1 = test system: IGROV-1
UO-31 = test system: UO-31
SR = test system: SR
NCI-H226 = test system: NCI-H226
RXF 393 = test system: RXF 393
CAKI-1 = test system: CAKI-1
HL-60 = test system: HL-60
HOP-18 = test system: HOP-18

With COc1cc(-c2cc(=O)c3cc(C)c(C)c(C(=O)O)c3o2)cc(OC)c1OC the GI50 (HCT-116) was > 100 µM (inactive), the GI50 (SF-268) was > 100 µM (inactive) and the GI50 (A498) was > 100 µM (inactive). For the same molecule, the GI50 (U-251) was > 100 µM (inactive), the GI50 (OVCAR-5) was > 100 µM (inactive) and the GI50 (M14) was > 100 µM (inactive). For the same molecule, the GI50 (SK-MEL-28) was > 100 µM (inactive), the GI50 (HCT-15) was greater than 100 µM and the GI50 (LXFL 529) was > 100 µM (inactive). The GI50 (Malme-3M) was > 100 µM (inactive), the GI50 (HCC 2998) was > 100 µM (inactive) and the GI50 (TK-10) was > 100 µM (inactive). For the same molecule, the GI50 (LOX IMVI) was > 100 µM (inactive), the GI50 (DLD-1) was > 100 µM (inactive) and the GI50 (RPMI-8226) was > 100 µM (inactive). For the same molecule, the GI50 (KM12) was > 100 µM (inactive), the GI50 (DMS-273) was > 100 µM (inactive) and the GI50 (A549) was > 100 µM (inactive). The GI50 (EKVX) was > 100 µM (inactive), the GI50 (HOP-92) was > 100 µM (inactive) and the GI50 (MOLT-4) was > 100 µM (inactive). For the same molecule, the GI50 (NCI-H460) was > 100 µM (inactive), the GI50 (SK-MEL-2) was > 100 µM (inactive) and the GI50 (UACC-257) was > 100 µM (inactive). For the same molecule, the GI50 (786-0) was > 100 µM (inactive), the GI50 (SK-OV-3) was > 100 µM (inactive) and the GI50 (UACC-62) was > 100 µM (inactive). The GI50 (XF498) was > 100 µM (inactive), the GI50 (HT-29) was > 100 µM (inactive) and the GI50 (SK-MEL-5) was > 100 µM (inactive). The GI50 (ACHN) was > 100 µM (inactive), the GI50 (M19-MEL) was > 100 µM (inactive) and the GI50 (SF-539) was > 100 µM (inactive). The GI50 (COLO 205) was > 100 µM (inactive), the GI50 (HOP-62) was > 100 µM (inactive) and the GI50 (SNB-75) was 2.32 µM (inactive). For the same molecule, the GI50 (NCI-H522) was 67.6 µM (inactive), the GI50 (DMS-114) was > 100 µM (inactive) and the GI50 (OVCAR-8) was > 100 µM (inactive). For the same molecule, the GI50 (OVCAR-3) was > 100 µM (inactive), the GI50 (SW-620) was > 100 µM (inactive) and the GI50 (CCRF-CEM) was > 100 µM (inactive). The GI50 (KM-20L2) was > 100 µM (inactive), the GI50 (SN12C) was > 100 µM (inactive) and the GI50 (SNB-19) was > 100 µM (inactive). For the same molecule, the GI50 (RXF 631) was > 100 µM (inactive), the GI50 (OVCAR-4) was > 100 µM (inactive) and the GI50 (NCI-H23) was > 100 µM (inactive). The GI50 (SF-295) was > 100 µM (inactive), the GI50 (SNB-78) was > 100 µM (inactive) and the GI50 (K562) was > 100 µM (inactive). The GI50 (IGROV-1) was > 100 µM (inactive) and the GI50 (UO-31) was > 100 µM (inactive).
For C(=C\c1cc(CCc2nc3ccccc3[nH]2)n[nH]1)/c1ccccc1, the GI50 (HCT-116) was > 100 µM (inactive), the GI50 (SF-268) was > 100 µM (inactive) and the GI50 (A498) was > 100 µM (inactive). For the same molecule, the GI50 (U-251) was > 100 µM (inactive), the GI50 (OVCAR-5) was > 100 µM (inactive) and the GI50 (M14) was > 100 µM (inactive). The GI50 (SK-MEL-28) was > 100 µM (inactive), the GI50 (HCT-15) was greater than 100 µM and the GI50 (Malme-3M) was > 100 µM (inactive). The GI50 (HCC 2998) was > 100 µM (inactive), the GI50 (TK-10) was > 100 µM (inactive) and the GI50 (LOX IMVI) was > 100 µM (inactive). The GI50 (DLD-1) was > 100 µM (inactive), the GI50 (RPMI-8226) was > 100 µM (inactive) and the GI50 (KM12) was > 100 µM (inactive). For the same molecule, the GI50 (A549) was > 100 µM (inactive), the GI50 (EKVX) was > 100 µM (inactive) and the GI50 (HOP-92) was > 100 µM (inactive). The GI50 (MOLT-4) was > 100 µM (inactive), the GI50 (SR) was > 100 µM (inactive) and the GI50 (NCI-H460) was > 100 µM (inactive). The GI50 (UACC-257) was > 100 µM (inactive), the GI50 (786-0) was > 100 µM (inactive) and the GI50 (SK-OV-3) was > 100 µM (inactive). The GI50 (NCI-H226) was > 100 µM (inactive), the GI50 (UACC-62) was > 100 µM (inactive) and the GI50 (XF498) was > 100 µM (inactive). For the same molecule, the GI50 (RXF 393) was > 100 µM (inactive), the GI50 (HT-29) was > 100 µM (inactive) and the GI50 (SK-MEL-5) was > 100 µM (inactive). The GI50 (ACHN) was > 100 µM (inactive), the GI50 (M19-MEL) was > 100 µM (inactive) and the GI50 (SF-539) was > 100 µM (inactive). The GI50 (CAKI-1) was > 100 µM (inactive), the GI50 (COLO 205) was > 100 µM (inactive) and the GI50 (HOP-62) was > 100 µM (inactive). For the same molecule, the GI50 (HL-60) was > 100 µM (inactive), the GI50 (SNB-75) was > 100 µM (inactive) and the GI50 (NCI-H522) was > 100 µM (inactive). For the same molecule, the GI50 (DMS-114) was > 100 µM (inactive), the GI50 (OVCAR-8) was > 100 µM (inactive) and the GI50 (OVCAR-3) was > 100 µM (inactive). The GI50 (SW-620) was > 100 µM (inactive), the GI50 (CCRF-CEM) was 89.3 µM (inactive) and the GI50 (KM-20L2) was > 100 µM (inactive). The GI50 (SN12C) was > 100 µM (inactive), the GI50 (SNB-19) was > 100 µM (inactive) and the GI50 (RXF 631) was > 100 µM (inactive). For the same molecule, the GI50 (OVCAR-4) was > 100 µM (inactive), the GI50 (NCI-H23) was > 100 µM (inactive) and the GI50 (SF-295) was > 100 µM (inactive). For the same molecule, the GI50 (K562) was > 100 µM (inactive), the GI50 (HOP-18) was > 100 µM (inactive) and the GI50 (IGROV-1) was > 100 µM (inactive). The GI50 (UO-31) was > 100 µM (inactive).
